We go through five molecules from patent US12252469B2, “Crystalline forms of (E)-N-hydroxy-3-(1-(phenylsulfonyl)indolin-5-yl)acrylamide” (ANBOGEN THERAPEUTICS INC., priority 2023, dated 2025).

Data set [1] in a line: Competitive slurry, inter-conversion of Type A and Type B. It counts as physicochemical.
Data set [2] is described as follows: Polymorph characterization: form conversion on drying. Type of data set: physicochemical. The procedure:
Using ABT-301 Type A (Sample name: ABT-301, CP ID: 826543-01-A) as starting material, a total of 100 polymorph screening experiments were performed, using methods of vapor-solution diffusion, vapor-solid diffusion, slow evaporation, slurry (RT and 50° C.), temperature cycling, slow cooling, anti-solvent addition and grinding.

Data set [3] is described as follows: Solid stability evaluation for 1/2/4 weeks.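 As to all read-outs here: Solid-state physical and chemical stability tracked by XRPD for form, KF for water content, and HPLC for purity and assay.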 The conditions noted are these: for HPLC purity change after solid stability / form change after solid stability: all storage conditions.
Protocol: Type A/B were stored under the conditions of 60° C., 25° C./60% RH, 25° C./92.5% RH and 40° C./75% RH for 1/2/4 weeks for solid stability evaluation. Amorphous was stored under the conditions of 25° C./60% RH and 40° C./75% RH for 1/2/4 weeks for solid stability evaluation. The physical and chemical stability were evaluated by X-ray powder diffraction (XRPD), thermo gravimetric analysis (TGA)/Karl Fischer (KF), differential scanning calorimetry (DSC)/modulated differential I scanning calorimetry (mDSC), high performance liquid chromatography (HPLC) purity and assay, respectively.
XRPD, TGA, DSC and KF in this example are under the same conditions with those described in Example 2.
Agilent 1260 were utilized and detailed chromatographic conditions are listed in
A short description of another data set: DVS water uptake. Type of data set: physicochemical. How it is done:
DVS was measured via a SMS (Surface Measurement Systems) DVS Intrinsic or Intrinsic Plus. The relative humidity at 25° C. were calibrated against deliquescence point of LiCl, Mg(NO3)2 and KCl.

As to `O=C(/C=C/c1ccc2c(c1)CCN2S(=O)(=O)c1ccccc1)NO` [Type A/Type B, (E)-N-hydroxy-3-(1-(phenylsulfonyl)indolin-5-yl) acrylamide], the “Result (form obtained, competitive slurry)” value (shortened to “Result”) is listed as “Type B” in data set [1] (2-MeTHF, 50° C., 2 days); “Type B + P” in data set [1] (2-MeTHF, RT, 2 days); “Type D” in data set [1] (Acetone (aw~0), RT, 2 days); “Type D” in data set [1] (Acetone/H2O (95:5, aw~0.4), RT, 1 day); “Type D” in data set [1] (Acetone/H2O (605:395, aw~0.8), RT, 1 day); “Type D” in data set [1] (Acetone/H2O (857:143, aw~0.6), RT, 1 day). Besides, the “Result” value in data set [1] (Acetone/H2O (986:14, aw~0.2), RT, 1 day) is recorded as “Type D”; in data set [1] (H2O, RT, 1 day), “Type A”; in data set [1] (MIBK, 50° C., 2 days), “Type B”; in data set [1] (MIBK, RT, 2 days), “Type O”; in data set [1] (Toluene, 50° C., 8 days), “Type B”; in data set [1] (Toluene, RT, 1 day, without molecular sieve, KF 0.0250 wt %, water activity 0.32) it was “Type A”. Moreover, the “Result” value in data set [1] (Toluene, RT, 2 days, with molecular sieve, KF 0.0072 wt %, water activity 0.11) is given as “Type B”; in data set [1] (n-Heptane, 50° C., 8 days) it was “Type B”; in data set [1] (n-Heptane, RT, 1 day, without molecular sieve, KF 0.0049 wt %, water activity 0.29), “Type A”; in data set [1] (n-Heptane, RT, 2 days, with molecular sieve, KF 0.0003 wt %, water activity 0.02), “Type B”; in data set [1] (t-Butanol, RT, 1 day, water activity 0.06), “Type B”; in data set [1] (t-Butanol/H2O (886:121), RT, 3 days, water activity 0.88) it was “Type A”. The “Result” value in data set [1] (t-Butanol/H2O (909:10), RT, 1 day, water activity 0.17) was “Type B”; in data set [1] (t-Butanol/H2O (962:71), RT, 3 days, water activity 0.71), “Type A”; in data set [1] (t-Butanol/H2O (980:35), RT, 1 day, water activity 0.37) it was “Type A”; in data set [1] (t-Butanol/H2O (985:30), RT, 3 days, water activity 0.56) it was “Type A”.

On to `O=C(/C=C/c1ccc2c(c1)CCN2S(=O)(=O)c1ccccc1)NO` [Type Q, (E)-N-hydroxy-3-(1-(phenylsulfonyl)indolin-5-yl) acrylamide], for which the “form conversion on drying” value in data set [2] (dried at RT in open air for 8 days and under vacuum for 16.5 hours) is listed as “The sample converted to Type M after dried at RT in open”.

Consider `O=C(/C=C/c1ccc2c(c1)CCN2S(=O)(=O)c1ccccc1)NO` [Amorphous, (E)-N-hydroxy-3-(1-(phenylsulfonyl)indolin-5-yl) acrylamide], for which the Assay in data set [3] (25° C./60% RH, 1 week) is recorded as 91.3%; in data set [3] (25° C./60% RH, 2 weeks), 92.2%; in data set [3] (25° C./60% RH, 4 weeks), 90.7%; in data set [3] (40° C./75% RH, 1 week), 91.5%; in data set [3] (40° C./75% RH, 2 weeks) it was 92.1%; in data set [3] (40° C./75% RH, 4 weeks), 90.6%. This molecule registered an Assay in data set [3] (Initial) of 91.5%. Further, the “Form (XRPD)” value was “Type A” in data set [3] (25° C./60% RH, 1 week); “Type A” in data set [3] (25° C./60% RH, 2 weeks); “Type A” in data set [3] (25° C./60% RH, 4 weeks); “Type A” in data set [3] (40° C./75% RH, 1 week); “Type A” in data set [3] (40° C./75% RH, 2 weeks); “Type A” in data set [3] (40° C./75% RH, 4 weeks). Further, the “Form (XRPD)” value in data set [3] (Initial) is “Amorphous”. Moreover, the HPLC purity in data set [3] (25° C./60% RH, 1 week) came out at 99.71 Area %; in data set [3] (25° C./60% RH, 2 weeks), 99.76 Area %; in data set [3] (25° C./60% RH, 4 weeks), 99.81 Area %; in data set [3] (40° C./75% RH, 1 week), 99.75 Area %; in data set [3] (40° C./75% RH, 2 weeks) it was 99.78 Area %; in data set [3] (40° C./75% RH, 4 weeks) it was 99.84 Area %. The HPLC purity in data set [3] (Initial) is 99.84 Area %. In addition, the “HPLC purity change after solid stability” value in data set [3] (4 weeks) is “no obvious HPLC purity change”. Besides, in data set [3] (4 weeks), the “form change after solid stability” value is reported as “converted to Type A”.

Take `O=C(/C=C/c1ccc2c(c1)CCN2S(=O)(=O)c1ccccc1)NO` [Type B, (E)-N-hydroxy-3-(1-(phenylsulfonyl)indolin-5-yl) acrylamide]: the “water activity at which the form was obtained in competitive slurry” value in data set [1] (t-Butanol and t-Butanol/H2O, RT, water activity calculated from KF by COSMOlogic) is reported as no more than 0.17. In addition, the “water uptake (DVS)” value in the data set “DVS water uptake” (25° C./80% RH) was 0.1039%. Moreover, in the data set “DVS water uptake” (after DVS test), the “form change after DVS test (XRPD)” value was “no form change”. Moreover, the Assay in data set [3] (25° C./60% RH, 1 week) is listed as 97.8%; in data set [3] (25° C./60% RH, 2 weeks) it was 96.8%; in data set [3] (25° C./60% RH, 4 weeks), 98.2%; in data set [3] (40° C./75% RH, 1 week), 97.6%; in data set [3] (40° C./75% RH, 2 weeks) it was 97.1%; in data set [3] (40° C./75% RH, 4 weeks) it was 97.8%. Besides, the Assay is given as 98.0% in data set [3] (60° C., 1 week); 96.5% in data set [3] (60° C., 2 weeks); 97.9% in data set [3] (60° C., 4 weeks); 96.8% in data set [3] (Initial); 97.9% in data set [3] ([…], 1 week); 96.8% in data set [3] ([…], 2 weeks). The molecule further returned an Assay in data set [3] ([…], 4 weeks) of 98.1%. Also, the “Form (XRPD)” value in data set [3] (25° C./60% RH, 1 week) was “Type B”; in data set [3] (25° C./60% RH, 2 weeks) it was “Type B”; in data set [3] (25° C./60% RH, 4 weeks), “Type B”; in data set [3] (40° C./75% RH, 1 week), “Type B”; in data set [3] (40° C./75% RH, 2 weeks) it was “Type B”; in data set [3] (40° C./75% RH, 4 weeks), “Type B”. Besides, the “Form (XRPD)” value in data set [3] (60° C., 1 week) was “Type B”; in data set [3] (60° C., 2 weeks), “Type B”; in data set [3] (60° C., 4 weeks), “Type B”; in data set [3] (Initial), “Type B”; in data set [3] ([…], 1 week) it was “Type B”; in data set [3] ([…], 2 weeks), “Type B”. In addition, the “Form (XRPD)” value in data set [3] ([…], 4 weeks) is given as “Type B”. For the same molecule, the HPLC purity was 99.85 Area % in data set [3] (25° C./60% RH, 1 week); 99.85 Area % in data set [3] (25° C./60% RH, 2 weeks); 99.86 Area % in data set [3] (25° C./60% RH, 4 weeks); 99.85 Area % in data set [3] (40° C./75% RH, 1 week); 99.84 Area % in data set [3] (40° C./75% RH, 2 weeks); 99.85 Area % in data set [3] (40° C./75% RH, 4 weeks). Moreover, the HPLC purity came out at 99.84 Area % in data set [3] (60° C., 1 week); 99.80 Area % in data set [3] (60° C., 2 weeks); 99.76 Area % in data set [3] (60° C., 4 weeks); 99.85 Area % in data set [3] (Initial); 99.85 Area % in data set [3] ([…], 1 week); 99.85 Area % in data set [3] ([…], 2 weeks). This molecule also came in with an HPLC purity in data set [3] ([…], 4 weeks) of 99.85 Area %. Further, the “KF (water content)” value in data set [3] (25° C./60% RH, 4 weeks) is given as 2.0658%; in data set [3] (40° C./75% RH, 4 weeks), 0.8491%; in data set [3] (60° C., 4 weeks), 1.9894%; in data set [3] (Initial) it was 0.5387%; in data set [3] ([…], 4 weeks), 1.8514%. For the same molecule, in data set [3] (4 weeks), the “HPLC purity change after solid stability” value is reported as “no form change, or obvious HPLC purity change”. Besides, in data set [3] (4 weeks), the “form change after solid stability” value is listed as “no form change”.

With `O=C(/C=C/c1ccc2c(c1)CCN2S(=O)(=O)c1ccccc1)NO` [Type P, (E)-N-hydroxy-3-(1-(phenylsulfonyl)indolin-5-yl) acrylamide], the “form conversion on drying” value in data set [2] (dried at RT overnight) is recorded as “The sample converted to Type A after dried at RT overnight”.
